Measurements as given in patent US20250368649A1, “TETRAHYDROPYRIDOPYRIMIDINE PAN-KRAS INHIBITORS” (Mirati Therapeutics, Inc., priority 2022, published 2025).

Key:
KRas Q61H = KRas Q61H (Homo sapiens, UniProt P01116, Q61H); test: KRas binding assay (TR-FRET displacement), KRas Q61H; settings: TR-FRET displacement
KRas G12D = KRas G12D (Homo sapiens, UniProt P01116, G12D); test: biochemical; settings: Binding to KRas (IC50 nM) G12D, TR-FRET displacement, KRas G12D
KRas WT = KRas WT (Homo sapiens, UniProt P01116); test: KRas binding assay (TR-FRET displacement), KRas WT; settings: TR-FRET displacement
Sequence of KRas WT (P01116 1-169 isoform P01116-2): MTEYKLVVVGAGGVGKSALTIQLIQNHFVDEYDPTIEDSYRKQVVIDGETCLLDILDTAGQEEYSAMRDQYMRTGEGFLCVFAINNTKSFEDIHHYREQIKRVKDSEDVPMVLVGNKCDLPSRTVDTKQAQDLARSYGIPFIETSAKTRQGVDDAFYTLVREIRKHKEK

KRas G12A = KRas G12A (Homo sapiens, UniProt P01116, G12A); type: binding; settings: TR-FRET displacement, read-out: Binding to KRas (IC50 nM) G12A
Sequence of KRas G12A (P01116 1-169 isoform P01116-2 G12A): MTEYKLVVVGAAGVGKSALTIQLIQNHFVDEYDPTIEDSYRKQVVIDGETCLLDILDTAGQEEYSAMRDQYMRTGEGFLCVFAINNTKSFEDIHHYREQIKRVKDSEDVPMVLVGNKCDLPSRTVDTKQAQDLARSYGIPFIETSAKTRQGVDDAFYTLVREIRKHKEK

KRas G12V = KRas G12V (Homo sapiens, UniProt P01116, G12V); test: biochemical; settings: Binding to KRas (IC50 nM) G12V, TR-FRET displacement, KRas G12V
Sequence of KRas G12V (P01116 1-169 isoform P01116-2 G12V): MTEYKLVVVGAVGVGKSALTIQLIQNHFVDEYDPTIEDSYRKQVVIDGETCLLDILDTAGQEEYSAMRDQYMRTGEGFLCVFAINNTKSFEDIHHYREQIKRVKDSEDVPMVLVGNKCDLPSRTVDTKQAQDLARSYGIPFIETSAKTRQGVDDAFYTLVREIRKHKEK

KRas G12C = KRas G12C (Homo sapiens, UniProt P01116, G12C); type: binding; settings: TR-FRET displacement, read-out: Binding to KRas (IC50 nM) G12C
Sequence of KRas G12C (P01116 1-169 isoform P01116-2 G12C): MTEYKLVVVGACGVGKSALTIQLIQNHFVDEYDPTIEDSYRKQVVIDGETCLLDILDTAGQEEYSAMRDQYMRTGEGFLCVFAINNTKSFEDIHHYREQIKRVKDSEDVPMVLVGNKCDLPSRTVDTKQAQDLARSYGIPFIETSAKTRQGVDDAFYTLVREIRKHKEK

KRas G12S = KRas G12S (Homo sapiens, UniProt P01116, G12S); type: binding; settings: TR-FRET displacement, read-out: Binding to KRas (IC50 nM) G12S
Sequence of KRas G12S (P01116 1-169 isoform P01116-2 G12S): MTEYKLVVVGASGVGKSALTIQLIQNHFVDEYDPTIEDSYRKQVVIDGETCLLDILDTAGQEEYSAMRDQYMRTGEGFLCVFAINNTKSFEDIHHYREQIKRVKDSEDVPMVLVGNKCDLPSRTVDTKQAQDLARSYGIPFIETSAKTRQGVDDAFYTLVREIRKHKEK

KRas G13D = KRas G13D (Homo sapiens, UniProt P01116, G13D); type: binding; settings: TR-FRET displacement, read-out: Binding to KRas (IC50 nM) G13D
Sequence of KRas G13D (P01116 1-169 isoform P01116-2 G13D): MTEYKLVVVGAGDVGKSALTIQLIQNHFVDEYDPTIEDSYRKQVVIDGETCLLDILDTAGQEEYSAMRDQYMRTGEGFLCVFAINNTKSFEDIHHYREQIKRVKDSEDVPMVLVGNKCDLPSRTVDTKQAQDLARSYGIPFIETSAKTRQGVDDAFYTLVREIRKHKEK

H727 cells = test: Inhibition of KRas-mediated phosphorylation of ERK (Cisbio HTRF pERK), H727 cells; type: cell-based; settings: Homo sapiens; for IC50: NCI-H727, 3 h, 3 hr compound incubation, Cisbio pERK HTRF; for inhibition at 0.1 µM: NCI-H727, single point at 100 nM, 3 hrs compound incubation
ASPC1 cells = test: Inhibition of KRas-mediated phosphorylation of ERK (Cisbio HTRF pERK), ASPC1 cells; type: cell-based; settings: Homo sapiens, AsPC-1 cells; for IC50: ASPC1, 3 h, 3 hr compound incubation, Cisbio pERK HTRF; for inhibition at 0.1 µM: ASPC1, single point at 100 nM, 3 hrs compound incubation
KRas G12R = KRas G12R (Homo sapiens, UniProt P01116, G12R); test: biochemical; settings: Binding to KRas (IC50 nM) G12R, TR-FRET displacement, KRas G12R
Sequence of KRas G12R (P01116 1-169 isoform P01116-2 G12R): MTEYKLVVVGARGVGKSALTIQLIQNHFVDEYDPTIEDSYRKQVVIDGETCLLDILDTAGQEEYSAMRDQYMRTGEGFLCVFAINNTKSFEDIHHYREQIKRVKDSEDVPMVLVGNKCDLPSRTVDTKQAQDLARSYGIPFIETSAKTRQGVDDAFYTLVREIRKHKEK

Sequence of KRas G12D (P01116 1-169 isoform P01116-2 G12D): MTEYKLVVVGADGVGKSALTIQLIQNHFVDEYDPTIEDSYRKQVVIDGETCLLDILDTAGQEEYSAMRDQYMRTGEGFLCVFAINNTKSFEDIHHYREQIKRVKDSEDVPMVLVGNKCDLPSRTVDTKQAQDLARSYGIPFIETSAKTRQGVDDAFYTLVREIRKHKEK
Sequence of KRas Q61H (P01116 1-169 isoform P01116-2 Q61H): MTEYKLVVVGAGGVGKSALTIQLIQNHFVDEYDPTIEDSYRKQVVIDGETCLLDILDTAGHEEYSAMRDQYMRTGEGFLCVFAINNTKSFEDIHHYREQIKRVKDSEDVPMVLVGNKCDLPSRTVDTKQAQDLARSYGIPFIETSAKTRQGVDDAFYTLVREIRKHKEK

SMILES	IC50 (KRas Q61H)	IC50 (KRas G12D)	IC50 (KRas WT)	IC50 (KRas G12A)	IC50 (KRas G12V)	IC50 (KRas G12C)	IC50 (KRas G12S)	IC50 (KRas G13D)	IC50 (H727 cells)	IC50 (ASPC1 cells)	IC50 (KRas G12R)	inhibition at 0.1 µM (H727 cells)	inhibition at 0.1 µM (ASPC1 cells)
O=C1NC(=O)C2(CCCN(c3nc(OCC45CCCN4CCC5)nc4c3CCN(c3cc(O)cc(Cl)c3C3CC3)C4)C2)N1 (centres unmarked) [Example 439, 7-(7-(3-chloro-2-cyclopropyl-5-hydroxyphenyl)-2-((tetrahydro-1H-pyrrolizin-7a(5H)-yl)methoxy)-5,6,7,8-tetrahydropyrido[3,4-d]pyrimidin-4-yl)-1,3,7-triazaspiro[4.5]decane-2,4-dione]	< 2 nM	2 nM	< 2 nM	< 2 nM	< 2 nM	< 2 nM	< 2 nM	< 2 nM	6240 nM	> 10000 nM	< 2 nM	–	–
O=C1NCC2(CCCN(c3nc(OCC45CCCN4CCC5)nc4c3CCN(c3cc(O)cc(Cl)c3C3CC3)C4)C2)N1 (centres unmarked) [Example 442, 7-(7-(3-chloro-2-cyclopropyl-5-hydroxyphenyl)-2-((tetrahydro-1H-pyrrolizin-7a(5H)-yl)methoxy)-5,6,7,8-tetrahydropyrido[3,4-d]pyrimidin-4-yl)-1,3,7-triazaspiro[4.5]decan-2-one]	2 nM	< 2 nM	3 nM	< 2 nM	3 nM	< 2 nM	3 nM	4 nM	> 10000 nM	> 10000 nM	3 nM	-4%	9%
O=C1CC2(CCCN(c3nc(OCC45CCCN4CCC5)nc4c3CCN(c3cc(O)cc(Cl)c3C3CC3)C4)C2)N1 (centres unmarked) [Example 443, 6-(7-(3-chloro-2-cyclopropyl-5-hydroxyphenyl)-2-((tetrahydro-1H-pyrrolizin-7a(5H)-yl)methoxy)-5,6,7,8-tetrahydropyrido[3,4-d]pyrimidin-4-yl)-1,6-diazaspiro[3.5]nonan-2-one]	5 nM	6 nM	8 nM	6 nM	3 nM	3 nM	4 nM	8 nM	8580 nM	> 10000 nM	4 nM	-25%	-16%
Oc1cc(Cl)c(C2CC2)c(N2CCc3c(nc(OCC45CCCN4CCC5)nc3N3CC4CC(O)C(C4)C3)C2)c1 (centres unmarked) [Example 444, 3-(7-(3-chloro-2-cyclopropyl-5-hydroxyphenyl)-2-((tetrahydro-1H-pyrrolizin-7a(5H)-yl)methoxy)-5,6,7,8-tetrahydropyrido[3,4-d]pyrimidin-4-yl)-3-azabicyclo[3.2.1]octan-6-ol]	87 nM	133 nM	50 nM	52 nM	38 nM	64 nM	42 nM	53 nM	5680 nM	8870 nM	40 nM	–	–
O=C1NC(=O)C2CN(c3nc(OCC45CCCN4CCC5)nc4c3CCN(c3cc(O)cc(Cl)c3C3CC3)C4)CC12 (centres unmarked) [Example 445, 5-(7-(3-chloro-2-cyclopropyl-5-hydroxyphenyl)-2-((tetrahydro-1H-pyrrolizin-7a(5H)-yl)methoxy)-5,6,7,8-tetrahydropyrido[3,4-d]pyrimidin-4-yl)tetrahydropyrrolo[3,4-c]pyrrole-1,3(2H,3aH)-dione]	9 nM	4 nM	7 nM	8 nM	4 nM	7 nM	3 nM	7 nM	> 10000 nM	> 10000 nM	8 nM	13%	-9%
Cc1cc2[nH]ncc2c(N2CCc3c(nc(OC[C@@]45CCCN4C[C@H](F)C5)nc3N3CCC[C@]4(C3)NC(=O)NC4=O)C2)c1C [Example 450, (R)-7-(7-(5,6-dimethyl-1H-indazol-4-yl)-2-(((2R,7aS)-2-fluorohexahydro-1H-pyrrolizin-7a-yl)methoxy)-5,6,7,8-tetrahydropyrido[3,4-d]pyrimidin-4-yl)-1,3,7-triazaspiro[4.5m] odecane-2,4-dione]	5 nM	5 nM	8 nM	8 nM	3 nM	7 nM	7 nM	6 nM	1270 nM	3490 nM	3 nM	–	–
Cc1cc2[nH]ncc2c(N2CCc3c(nc(OCC45CCCN4CCC5)nc3N3CCCn4nc(C(=O)N(C)C)cc4C3)C2)c1C [Example 451, 5-(7-(5,6-dimethyl-1H-indazol-4-yl)-2-((hexahydro-1H-pyrrolizin-7a-yl)methoxy)-5,6,7,8-tetrahydropyrido[3,4-d]pyrimidin-4-yl)-N,N-dimethyl-5,6,7,8-tetrahydro-4H-pyrazolo[1,5-a][1,4]diazepine-2-carboxamide]	1060 nM	11 nM	777 nM	387 nM	26 nM	209 nM	243 nM	1160 nM	> 10000 nM	> 10000 nM	62 nM	–	–
Cc1cc2[nH]ncc2c(N2CCc3c(nc(OCC45CCCN4CCC5)nc3N3CCCC4(CNS(=O)(=O)N4)C3)C2)c1C (centres unmarked) [Example 452, 7-(7-(5,6-dimethyl-1H-indazol-4-yl)-2-((hexahydro-1H-pyrrolizin-7a-yl)methoxy)-5,6,7,8-tetrahydropyrido[3,4-d]pyrimidin-4-yl)-2-thia-1,3,7-triazaspiro[4.5]decane 2,2-dioxide]	7 nM	4 nM	7 nM	9 nM	6 nM	8 nM	8 nM	8 nM	> 10000 nM	3000 nM	9 nM	–	–
Cc1cc2[nH]ncc2c(N2CCc3c(nc(OCC45CCCN4CCC5)nc3N3CCC[C@]4(C3)NC(=O)NC4=O)C2)c1C [Example 455, (R)-7-(7-(5,6-dimethyl-1H-indazol-4-yl)-2-((hexahydro-1H-pyrrolizin-7a-yl)methoxy)-5,6,7,8-tetrahydropyrido[3,4-d]pyrimidin-4-yl)-1,3,7-triazaspiro[4.5]decane-2,4-dione]	3 nM	4 nM	4 nM	4 nM	2 nM	3 nM	4 nM	4 nM	> 10000 nM	> 10000 nM	< 2 nM	–	–
Cc1cc2[nH]ncc2c(N2CCc3c(nc(OCC45CCCN4CCC5)nc3N3CCCC4(CC(=O)N4)C3)C2)c1C (centres unmarked) [Example 456, 6-(7-(5,6-dimethyl-1H-indazol-4-yl)-2-((hexahydro-1H-pyrrolizin-7a-yl)methoxy)-5,6,7,8-tetrahydropyrido[3,4-d]pyrimidin-4-yl)-1,6-diazaspiro[3.5]nonan-2-one]	48 nM	38 nM	53 nM	35 nM	18 nM	32 nM	33 nM	59 nM	> 10000 nM	> 10000 nM	17 nM	–	–
